From patent US11104676B2 (priority 2018, dated 2021)

Target: GST-tagged recombinant human TYRO3 kinase domain (Homo sapiens (Human), UniProt Q06418)
Details: read-out: TYRO3 enzyme IC50

GST-tagged recombinant human TYRO3 kinase domain, sequence (Q06418 518-790): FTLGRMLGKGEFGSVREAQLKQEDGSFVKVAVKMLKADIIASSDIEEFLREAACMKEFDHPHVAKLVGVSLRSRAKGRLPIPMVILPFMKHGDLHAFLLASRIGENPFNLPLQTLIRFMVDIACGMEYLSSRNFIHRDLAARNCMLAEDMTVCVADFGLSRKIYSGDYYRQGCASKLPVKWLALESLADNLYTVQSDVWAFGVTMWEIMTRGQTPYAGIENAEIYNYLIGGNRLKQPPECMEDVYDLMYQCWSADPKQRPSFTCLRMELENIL

IC50 [nM]	Compound
188	COCC1(Nc2n[nH]c3nccc(Oc4ccc(NC(=O)c5ccnn(-c6ccc(F)cc6)c5=O)cc4F)c23)CCC1 [Example 21, N-(3-fluoro-4-((3-((1-(methoxymethyl)cyclobutyl)amino)-1H-pyrazolo[3,4-b]pyridin-4-yl)oxy)phenyl)-2-(4-fluorophenyl)-3-oxo-2,3-dihydropyridazine-4-carboxamide]
224	CC(CC(F)F)Nc1n[nH]c2nccc(Oc3ccc(NC(=O)c4cn(C)cc(-c5ccc(F)cc5)c4=O)nc3)c12 (stereo not drawn) [Example 167, N-(5-((3-((4,4-difluorobutan-2-yl)amino)-1H-pyrazolo[3,4-b]pyridin-4-yl)oxy)pyridin-2-yl)-5-(4-fluorophenyl)-1-methyl-4-oxo-1,4-dihydropyridine-3-carboxamide]
120	O=C(Nc1ccc(Oc2ccnc3[nH]nc(NCC4CCS(=O)(=O)C4)c23)c(F)c1)c1ccnn(-c2ccc(F)cc2)c1=O (stereo not drawn) [Example 24, N-(4-((3-(((1,1-dioxidotetrahydrothiophen-3-yl)methyl)amino)-1H-pyrazolo[3,4-b]pyridin-4-yl)oxy)-3-fluorophenyl)-2-(4-fluorophenyl)-3-oxo-2,3-dihydropyridazine-4-carboxamide]
137	C[C@H](CO)Nc1n[nH]c2nccc(Oc3ccc(NC(=O)c4cc5c(n(-c6ccc(F)cn6)c4=O)CCCC5=O)cc3F)c12 [Example 111, (R)-N-(3-fluoro-4-((3-((1-hydroxypropan-2-yl)amino)-1H-pyrazolo[3,4-b]pyridin-4-yl)oxy)phenyl)-1-(5-fluoropyridin-2-yl)-2,5-dioxo-1,2,5,6,7,8-hexahydroquinoine-3-carboxamide]
130	CCn1nc(C(=O)Nc2ccc(Oc3ccnc4[nH]nc(N[C@H](C)CO)c34)c(F)c2)c(=O)n(-c2ccc(F)c(F)c2)c1=O [Example 133, (R)-4-(3,4-difluorophenyl)-2-ethyl-N-(3-fluoro-4-((3-((1-hydroxypropan-2-yl)amino)-1H-pyrazolo[3,4-b]pyridin-4-yl)oxy)phenyl)-3,5-dioxo-2,3,4-5-tetrahydro-1,2,4-triazine-6-carboxamide]
536	COCC1(Nc2n[nH]c3nccc(Oc4ccc(NC(=O)c5ccnn(-c6ccc(F)cc6)c5=O)cc4F)c23)CCCC1 [Example 20, N-(3-fluoro-4-((3-((1-(methoxymethyl)cyclopentyl)amino)-1H-pyrazolo[3,4-b]pyridin-4-yl)oxy)phenyl)-2-(4-fluorophenyl)-3-oxo-2,3-dihydropyridazine-4-carboxamide]
118	CCn1cc(C(=O)Nc2ccc(Oc3ccnc4[nH]nc(NC(C)(C)COC)c34)c(F)c2)c(=O)n(-c2ccc(F)cc2)c1=O [Example 157, 1-ethyl-N-(3-fluoro-4-((3-((1-methoxy-2-methylpropan-2-yl)amino)-1H-pyrazolo[3,4-b]pyridin-4-yl)oxy)phenyl)-3-(4-fluorophenyl)-2,4-dioxo-1,2,3,4-tetrahydropyrimidine-5-carboxamide]
292	COC[C@@H](C)Nc1n[nH]c2nccc(Oc3ccc(NC(=O)c4cc(C(C)C)nn(-c5ccc(F)cc5)c4=O)cc3F)c12 [Example 175, (R)-N-(3-fluoro-4-((3-((1-methoxypropan-2-yl)amino)-1H-pyrazolo[3,4-b]pyridin-4-yl)oxy)phenyl)-2-(4-fluorophenyl)-6-isopropyl-3-oxo-2,3-dihydropyridazine-4-carboxamide]
375	COC[C@@H]1CCC[C@@H]1Nc1n[nH]c2nccc(Oc3ccc(NC(=O)c4ccnn(-c5ccc(F)cc5)c4=O)cc3F)c12 (relative stereo) [Example 28, N-(3-fluoro-4-((3-((cis-2-(methoxymethyl)cyclopentyl)amino)-1H-pyrazolo[3,4-b]pyridin-4-yl)oxy)phenyl)-2-(4-fluorophenyl)-3-oxo-2,3-dihydropyridazine-4-carboxamide]
767	CC(C)n1cc(C(=O)Nc2ccc(Oc3ccnc4[nH]nc(N[C@H](C)CO)c34)c(F)c2)c(=O)n(-c2cnn(C)c2)c1=O [Example 93, (R)-N-(3-fluoro-4-((3-((1-hydroxypropan-2-yl)amino)-1H-pyrazoo[3,4-b]pyridin-4-yl)oxy)phenyl)-1-isopropyl-3-(1-methyl-1H-pyrazol-4-yl)-2,4-dioxo-1,2,3,4-tetrahydropyrimidine-5-carboxamide]
432	C[C@H](CO)Nc1n[nH]c2nccc(Oc3ccc(NC(=O)c4cn(C)n(-c5ccccc5)c4=O)cc3F)c12 [Example 87, (R)-N-(3-fluoro-4-((3-((1-hydroxypropan-2-yl)amino)-1H-pyrazolo[3,4-b]pyridin-4-yl)oxy)phenyl)-1-methyl-3-oxo-2-phenyl-2,3-dihydro-1H-pyrazole-4-carboxamide]
295	O=C(Nc1ccc(Oc2ccnc3[nH]nc(NC4CC(F)(F)C4)c23)c(F)c1)c1ccnn(-c2ccc(F)cc2)c1=O [Example 12, N-(4-((3-((3,3-difluorocyclobutyl)amino)-1H-pyrazolo[3,4-b]pyridin-4-yl)oxy)-3-fluorophenyl)-2-(4-fluorophenyl)-3-oxo-2,3-dihydropyridazine-4-carboxamide]
106	COC[C@@H](C)Nc1n[nH]c2nccc(Oc3ccc(NC(=O)c4cc(C5CC5)cn(-c5ccc(F)cc5)c4=O)nc3)c12 [Example 177, (R)-5-cyclopropyl-1-(4-fluorophenyl)-N-(5-((3-((1-methoxypropan-2-yl)amino)-1H-pyrazolo[3,4-b]pyridin-4-yl)oxy)pyridin-2-yl)-2-oxo-1,2-dihydropyridine-3-carboxamide]
131	COCC(C)(C)Nc1n[nH]c2nccc(Oc3ccc(NC(=O)c4ccnn(-c5ccc(F)cc5)c4=O)cc3F)c12 [Example 18, N-(3-fluoro-4-((3-((1-methoxy-2-methylpropan-2-yl)amino)-1H-pyrazolo[3,4-b]pyridin-4-yl)oxy)phenyl)-2-(4-fluorophenyl)-3-oxo-2,3-dihydropyridazine-4-carboxamide]
728	COC[C@@H](C)Nc1n[nH]c2nccc(Oc3ccc(NC(=O)c4cc(C(C)C)nn(-c5ccc(F)cc5)c4=O)nc3)c12 [Example 176, (R)-2-(4-fluorophenyl)-6-isopropyl-N-(5-((3-((1-methoxypropan-2-yl)amino)-1H-pyrazolo[3,4-b]pyridin-4-yl)oxy)pyridin-2-yl)-3-oxo-2,3-dihydropyridazine-4-carboxamide]
364	C[C@H](CO)Nc1n[nH]c2nccc(Oc3ccc(NC(=O)c4cn(C)n(-c5ccc(F)cc5)c4=O)cc3F)c12 [Example 88, (R)-N-(3-fluoro-4-((3-((1-hydroxypropan-2-yl)amino)-1H-pyrazolo[3,4-b]pyridin-4-yl)oxy)phenyl)-2-(4-fluorophenyl)-1-methyl-3-oxo-2,3-dihydro-1H-pyrazole-4-carboxamide]
133	CCOC[C@H](C)Nc1n[nH]c2nccc(Oc3ccc(NC(=O)c4cc(C)cn(-c5ccc(F)cc5)c4=O)cc3F)c12 [Example 172, (S)-N-(4-((3-((1-ethoxypropan-2-yl)amino)-1H-pyrazolo[3,4-b]pyridin-4-yl)oxy)-3-fluorophenyl)-1-(4-fluorophenyl)-5-methyl-2-oxo-1,2-dihydropyridine-3-carboxamide]
420	COCC(C)(C)Nc1n[nH]c2nccc(Oc3ccc(NC(=O)c4cn(CCO)c(=O)n(-c5ccc(F)cc5)c4=O)cc3F)c12 [Example 159, N-(3-fluoro-4-((3-((1-methoxy-2-methylpropan-2-yl)amino)-1H-pyrazolo[3,4-b]pyridin-4-yl)oxy)phenyl)-3-(4-fluorophenyl)-1-(2-hydroxyethyl)-2,4-dioxo-1,2,3,4-tetrahydropyrimidine-5-carboxamide]
875	CC(C)n1cc(C(=O)Nc2ccc(Oc3ccnc4[nH]nc(N[C@H](C)CO)c34)c(F)c2)c(=O)n(C(C)C)c1=O [Example 95, (R)-N-(3-fluoro-4-((3-((1-hydroxypropan-2-yl)amino)-1H-pyrazolo[3,4-b]pyridin-4-yl)oxy)phenyl)-1,3-diisopropyl-2,4-dioxo-1,2,3,4-tetrahydropyrimidine-5-carboxamide]
707	CC(C)(O)C1(Nc2n[nH]c3nccc(Oc4ccc(NC(=O)c5ccnn(-c6ccc(F)cc6)c5=O)cc4F)c23)CCCC1 [Example 182, N-(3-fluoro-4-((3-((1-(2-hydroxypropan-2-yl)cyclopentyl)amino)-1H-pyrazolo[3,4-b]pyridin-4-yl)oxy)phenyl)-2-(4-fluorophenyl)-3-oxo-2,3-dihydropyridazine-4-carboxamide]
439	COC[C@@H](C)Nc1n[nH]c2nccc(Oc3ccc(NC(=O)c4cc(C)cn(-c5ccc(F)cc5)c4=O)nc3)c12 [Example 178, (R)-1-(4-fluorophenyl)-N-(5-((3-((1-methoxypropan-2-yl)amino)-1H-pyrazolo[3,4-b]pyridin-4-yl)oxy)pyridin-2-yl)-5-methyl-2-oxo-1,2-dihydropyridine-3-carboxamide]
104	Cc1c(C(=O)Nc2ccc(Oc3ccnc4[nH]nc(N[C@H](C)CO)c34)c(F)c2)c(=O)n(-c2ccccc2)n1C [Example 86, (R)-N-(3-fluoro-4-((3-((1-hydroxypropan-2-yl)amino)-1H-pyrazolo[3,4-b]pyridin-4-yl)oxy)phenyl)-1,5-dimethyl-3-oxo-2-phenyl-2,3-dihydro-1H-pyrazole-4-carboxamide]
546	CC(C)n1cc(C(=O)Nc2ccc(Oc3ccnc4[nH]nc(N[C@H](C)CO)c34)c(F)c2)c(=O)n(C2CCOCC2)c1=O [Example 99, (R)-N-(3-fluoro-4-((3-((1-hydroxypropan-2-yl)amino)-1H-pyrazolo[3,4-b]pyridin-4-yl)oxy)phenyl)-1-isopropyl-2,4-dioxo-3-(tetrahydro-2H-pyran-4-yl)-1,2,3,4-tetrahydropyrimidine-5-carboxamide]
198	C[C@H](CO)Nc1n[nH]c2nccc(Oc3ccc(NC(=O)C4CCCN(c5ccc(F)cc5)C4=O)cc3F)c12 (stereo partly drawn) [Example 101, N-(3-fluoro-4-((3-(((R)-1-hydroxypropan-2-yl)amino)-1H-pyrazolo[3,4-b]pyridin-4-yl)oxy)phenyl)-1-(4-fluorophenyl)-2-oxopiperidine-3-carboxamide]
